Assays:
[1] = system: A549 human lung carcinoma cell line; assay: cell viability (proliferation) assay, Trypan blue exclusion counting, A549; type: cell-based; conditions: A549 cells, compound @ 1 μM, 72 hours, vs 1% DMSO control
Experimental: (§1) Anti-oncogenic effects of the compounds of the present invention were evaluated by cell viability (proliferation) assays in H460 non-small cell lung cancer cell line and A549 human lung carcinoma cell line. H460 and A549 were purchased from ATCC (American Type Culture Collection), and they were maintained in RPMI 1640 and DMEM, respectively, with 10% fetal bovine serum. Cell lines were cultured in an incubator with 5% CO2 at 37° C.
(§2) Cells were seeded in 6-well-plates (10^5 cells/ml medium per well) and allowed them to grow for 24 hrs in the incubator. Cells were then treated with 1 μM of tested compounds. Cells treated with 1% DMSO were used as control. 72 hours after treatment, cells were removed by trypsinization and viable cell number was obtained by counting Trypan blue-excluding cells under microscope with a hemocytometer. Experiments were performed in triplicate. Statistical were carried out by analysis of variance (ANOVA) and LSD test for multiple comparisons, with p<0.05 considered significant.

[2] = system: H460 non-small cell lung cancer cell line; assay: cell viability (proliferation) assay, Trypan blue exclusion counting, H460; type: cell-based; conditions: H460 cells, compound @ 1 μM, 72 hours, vs 1% DMSO control
Experimental: as §1, §2

Row | SMILES | Cell Death (%) after 3-day treatment [1] | Cell Death (%) after 3-day treatment [2]
1 | COC1=CC(c2cc3ccccc3[nH]2)=N/C1=C\c1[nH]c(C)cc1C [Obatoclax] | 76.6% | 88.3%
2 | COC1=CC(c2cc3sc(Cl)cc3[nH]2)=N/C1=C\c1[nH]c(C)cc1C [Example 2, (Z)-2-chloro-5-(2-((3,5-dimethyl-1H-pyrrol-2-yl)methylene)-3-methoxy-2H-pyrrol-5-yl)-4H-thieno[3,2-b]pyrrole] | 86.7% | 88.6%
